Molecules are shown by their SMILES. Read-outs that look alike come from different tables or passages of the source. Some results are limits rather than exact numbers.

The subject of one test is MDA-MB-468. In words: Cell growth inhibition (CellTiter-Glo), breast cancer line MDA-MB-468. Format: cell-based. The following applies: MDA-MB-468 breast cancer cell line, 4 days. How it is done: (§1) Cell growth inhibitory activity of representative BET bromodomain degraders in representative breast cancer cell lines was determined using the CellTiter-Glo® Luminescent Cell Viability Assay. SUM-52 and SUM-159 cell lines were established at the University of Michigan Comprehensive Cancer Center. All the other breast cancer cell lines were obtained from the ATCC (Manassas, Va.). Cells were seeded in 384-well cell culture plates at a density of 1,000-2,500 cells/well with serially diluted compounds and incubated at 37° C. in an atmosphere of 95% air and 5% CO2 for 4 days. Cell viability was determined using the CellTiter-Glo® Luminescent Cell Viability Assay Kit (Promega, Madison, Wis.) according to the manufacture's instruction. Briefly, a volume of CellTiter-Glo® Reagent equal to the volume of cell culture medium was added to each well, and then the plates were incubated at room temperature for 20-60 minutes. The luminescent signal was measured using a Tecan Infinite M1000 multimode microplate reader (Tecan, Morrisville, N.C.). The half maximal inhibitory concentration (IC50) was calculated using the GraphPad Prism 5 software (GraphPad Software, La Jolla, Calif.). “Thd” is thalidomide.

For the next test, the system named is SUM-159. In words: Cell growth inhibition (CellTiter-Glo), breast cancer line SUM-159. The format is cell-based. The following applies: SUM-159 breast cancer cell line, 4 days. How it is done:
as §1

In the next test the test system is SKCO-1. Description: Cell growth inhibition (CellTiter-Glo), colon cancer line SKCO-1. Format: cell-based. The following applies: SKCO-1 colon cancer cell line. The protocol: (§2) Cell growth inhibitory activity of representative BET bromodomain degraders in representative non-small cell lung cancer cell lines was determined using the CellTiter-Glo® Luminescent Cell Viability Assay. Cells were seeded in 384-well white opaque cell culture plates at a density of 2,000 cells/well with serially diluted compounds and incubated at 37° C. in an atmosphere of 95% air and 5% CO2 for 4 days. Cell viability was determined using the CellTiter-Glo® Luminescent Cell Viability Assay Kit (Promega, Madison, Wis.) according to the manufacture's instruction. Briefly, a volume of CellTiter-Glo® Reagent equal to the volume of cell culture medium was added to each well, and then the plates were incubated at room temperature for 10-20 minutes. The luminescent signal was measured using a Tecan Infinite M1000 multimode microplate reader (Tecan, Morrisville, N.C.). The half maximal inhibitory concentration (IC50) was calculated using the GraphPad Prism 5 software (GraphPad Software, La Jolla, Calif.). Cpd. A is a BET bromodomain inhibitor, see U.S. Appl. No. 62/121,637, having the following structure:
(§3) Cell growth inhibitory activity of representative BET bromodomain degraders in representative colon cancer cell lines, see Table 7, was determined as described in Example 17.

For the next test, the system named is RKO. In words: Cell growth inhibition (CellTiter-Glo), colon cancer line RKO. Format: cell-based. The protocol:
as §2, §3

The next test deals with SW837. In words: Cell growth inhibition (CellTiter-Glo), colon cancer line SW837. The format is cell-based. The protocol:
as §2, §3

The next test deals with SUM-52. In words: Cell growth inhibition (CellTiter-Glo), breast cancer line SUM-52. The format is cell-based. The following applies: SUM-52 breast cancer cell line, 4 days. How it is done:
as §1

Another test relates to MDA-MB-231. Description: Cell growth inhibition (CellTiter-Glo), breast cancer line MDA-MB-231. Format: cell-based, human. The following applies: MDA-MB-231 breast cancer cell line, 4 days. The protocol:
as §1

The subject of the next test is H460. Description: Cell growth inhibition (CellTiter-Glo), NSCLC line H460. The format is cell-based. The settings on record: H460 non-small cell lung cancer cell line, 4 days. The protocol: as §2, with “Appl.” for “Appl. No. 62/121,637, having the following structure:”
The next test deals with H2170. Description: Cell growth inhibition (CellTiter-Glo), NSCLC line H2170. Format: cell-based. The following applies: H2170 non-small cell lung cancer cell line, 4 days. How it is done: as §2, with “Appl.” for “Appl. No. 62/121,637, having the following structure:”
A further test concerns SW948. In words: Cell growth inhibition (CellTiter-Glo), colon cancer line SW948. Format: cell-based. How it is done:
as §2, §3

The test system of a further test is H1437. In words: Cell growth inhibition (CellTiter-Glo), NSCLC line H1437. The following applies: H1437 non-small cell lung cancer cell line, 4 days. The format is cell-based. The protocol: as §2, with “Appl.” for “Appl. No. 62/121,637, having the following structure:”
The subject of another test is H647. In words: Cell growth inhibition (CellTiter-Glo), NSCLC line H647. Format: cell-based. The following applies: H647 non-small cell lung cancer cell line, 4 days. How it is done: as §2, with “Appl.” for “Appl. No. 62/121,637, having the following structure:”
The test system of the next test is HCC1428. Description: Cell growth inhibition (CellTiter-Glo), breast cancer line HCC1428. The settings on record: 4 days. Format: cell-based. The protocol: as §1
For another test, the system named is LS123. In words: Cell growth inhibition (CellTiter-Glo), colon cancer line LS123. Format: cell-based. How it is done:
as §2, §3

For a further test, the system named is SW1412. Description: Cell growth inhibition (CellTiter-Glo), colon cancer line SW1412. The format is cell-based. How it is done:
as §2, §3

The next test relates to HCC1937. In words: Cell growth inhibition (CellTiter-Glo), breast cancer line HCC1937. The format is cell-based. The following applies: 4 days. How it is done:
as §1

The next test deals with H1975. In words: Cell growth inhibition (CellTiter-Glo), NSCLC line H1975. Format: cell-based. The settings on record: H1975 non-small cell lung cancer cell line, 4 days. How it is done: as §2, with “Appl.” for “Appl. No. 62/121,637, having the following structure:”
Another test deals with HCC1187. Description: Cell growth inhibition (CellTiter-Glo), breast cancer line HCC1187. The format is cell-based. The settings on record: 4 days. The protocol:
as §1

A further test deals with Lovo. Description: Cell growth inhibition (CellTiter-Glo), colon cancer line Lovo. Format: cell-based. How it is done: as §2, §3
Another test has as its system H23. Description: Cell growth inhibition (CellTiter-Glo), NSCLC line H23. The format is cell-based. The following applies: H23 non-small cell lung cancer cell line, 4 days. The protocol:
as §2, with “Appl.” for “Appl. No. 62/121,637, having the following structure:”

In another test the test system is H322. In words: Cell growth inhibition (CellTiter-Glo), NSCLC line H322. Format: cell-based. The following applies: H322 non-small cell lung cancer cell line, 4 days. How it is done:
as §2, with “Appl.” for “Appl. No. 62/121,637, having the following structure:”

A further test relates to LS513. In words: Cell growth inhibition (CellTiter-Glo), colon cancer line LS513. The format is cell-based. How it is done:
as §2, §3

In the next test the test system is HCT116. Description: Cell growth inhibition (CellTiter-Glo), colon cancer line HCT116. Format: cell-based. The protocol: as §2, §3

Take `Cc1sc2c(c1C)C(c1ccc(Cl)cc1)=N[C@@H](CC(=O)NCCCCNC(=O)COc1cccc3c1C(=O)N(C1CCC(=O)NC1=O)C3=O)c1nnc(C)n1-2` (stereo partly shown) [dBET1, reference compound]: the IC50 with MDA-MB-468 is 1390 nM; in the test with SUM-159, more than 5000 nM; in the test with SKCO-1 it was more than 5000 nM; in the test with RKO it was more than 5000 nM; with SW837, more than 5000 nM; in the test on SUM-52 it was more than 5000 nM. Moreover, the IC50 with MDA-MB-231 was 1830 nM; in the test with H460 it was more than 5000 nM; in the test with H2170 it was more than 5000 nM; in the test on SW948, more than 5000 nM; in the test with H1437, more than 5000 nM; in the test on H647, more than 5000 nM. In addition, the 50% inhibitory concentration (IC50) in the test with HCC1428, in the test with LS123, with SW1412, in the test on HCC1937, in the test with H1975 and in the test with HCC1187 was more than 5000 nM in each case. Also, the IC50 with Lovo, with H23, with H322, with LS513 and in the test on HCT116 was more than 5000 nM each time.
Take `CCn1nc(C2CC2)cc1Nc1nc(COC)nc2[nH]c3cc(-c4c(C)noc4C)c(OC)cc3c12` [Cpd. A, reference compound]: the IC50 with MDA-MB-468 (Homo sapiens, 96 h) is 510 nM; in the test on SUM-159 (SUM159, 96 h), 510 nM; with SKCO-1 (Homo sapiens, SK-CO-1), 1080 ± 240 nM; with RKO (Homo sapiens), 272 ± 235 nM; in the test with SW837 (Homo sapiens) it was 84 ± 20 nM; with SUM-52 (SUM52, 96 h) it was 390 nM. The IC50 in the test with MDA-MB-231 (Homo sapiens, 96 h) was 220 nM; with H460 (Homo sapiens, NCI-H460, 96 h), 1790 nM; in the test on H2170 (Homo sapiens, NCI-H2170, 96 h) it was 20 nM; with SW948 (Homo sapiens) it was more than 2500 nM; with H1437 (Homo sapiens, NCI-H1437, 96 h), 140 nM; with H647 (Homo sapiens, NCI-H647, 96 h) it was 80 nM. Also, the half-inhibitory concentration (IC50) with HCC1428 (Homo sapiens, 96 h) was 50 nM; in the test on LS123 (Homo sapiens, LS-123) it was 739 ± 680 nM; in the test with SW1412, 40 ± 20 nM; with HCC1937 (Homo sapiens, 96 h), more than 5000 nM; in the test with H1975 (Homo sapiens, NCI-H1975, 96 h) it was 40 nM; in the test with HCC1187 (Homo sapiens, 96 h) it was 960 nM. Moreover, the half-maximal inhibitory concentration (IC50) with Lovo (Homo sapiens) amounted to 44 ± 17 nM; in the test with H23 (Homo sapiens, NCI-H23, 96 h), 130 nM; in the test with H322 (NCI-H322, 96 h), 340 nM; with LS513 (Homo sapiens, LS-513) it was 915 ± 670 nM; with HCT116 (Homo sapiens, HCT-116) it was 1160 ± 179 nM.
Turning to `CCn1nc(C2CC2)cc1Nc1nc(C(=O)NCCCOCCOCCOCCCNc2cccc3c2C(=O)N(C2CCC(=O)NC2=O)C3=O)nc2[nH]c3cc(-c4c(C)noc4C)c(OC)cc3c12` (stereo not shown) [Cpd. No. 4], the half-inhibitory concentration (IC50) with MDA-MB-468 (Homo sapiens, 96 h) is 2 nM; with SUM-159 (SUM159, 96 h), 166 nM; in the test on SKCO-1 (Homo sapiens, SK-CO-1), 8 ± 4 nM; in the test on RKO (Homo sapiens), 46 ± 1 nM; in the test on SW837 (Homo sapiens), 76 ± 30 nM; with SUM-52 (SUM52, 96 h) it was 8 nM. Also, the IC50 in the test with MDA-MB-231 (Homo sapiens, 96 h) is 4 nM; with H460 (Homo sapiens, NCI-H460, 96 h) it was 505 nM; in the test on H2170 (Homo sapiens, NCI-H2170, 96 h), 99 nM; in the test on SW948 (Homo sapiens), 197 ± 160 nM; with H1437 (Homo sapiens, NCI-H1437, 96 h) it was 329 nM; in the test with H647 (Homo sapiens, NCI-H647, 96 h) it was 598 nM. The IC50 turned out to be 13 nM in the test with HCC1428 (Homo sapiens, 96 h); 11 ± 10 nM in the test with LS123 (Homo sapiens, LS-123); 9 ± 4 nM in the test on SW1412; 8 nM in the test on HCC1937 (Homo sapiens, 96 h); 3 nM in the test on H1975 (Homo sapiens, NCI-H1975, 96 h); 3 nM in the test with HCC1187 (Homo sapiens, 96 h). The IC50 in the test with Lovo (Homo sapiens) is 13 ± 14 nM; with H23 (Homo sapiens, NCI-H23, 96 h), 612 nM; in the test with H322 (NCI-H322, 96 h) it was 44 nM; in the test on LS513 (Homo sapiens, LS-513), 70 ± 20 nM; with HCT116 (Homo sapiens, HCT-116), 130 ± 30 nM.
As for `CCn1nc(C2CC2)cc1Nc1nc(C(=O)NCCCCNc2cccc3c2C(=O)N(C2CCC(=O)NC2=O)C3=O)nc2[nH]c3cc(-c4c(C)noc4C)c(OC)cc3c12` (stereo not shown) [Cpd. No. 9], the IC50 in the test with SKCO-1 (Homo sapiens, SK-CO-1) stood at 23 ± 10 nM; in the test on RKO (Homo sapiens), 241 ± 27 nM; in the test with SW837 (Homo sapiens), 230 ± 67 nM; in the test with H460 (Homo sapiens, NCI-H460, 96 h), 51000 nM; with H2170 (Homo sapiens, NCI-H2170, 96 h), 195 nM; with SW948 (Homo sapiens) it was 1000 ± 1070 nM. Moreover, the IC50 in the test with H1437 (Homo sapiens, NCI-H1437, 96 h) came out at 818 nM; with H647 (Homo sapiens, NCI-H647, 96 h), 789 nM; in the test on LS123 (Homo sapiens, LS-123), 74 ± 50 nM; in the test with SW1412, 34 ± 20 nM; with H1975 (Homo sapiens, NCI-H1975, 96 h), 16 nM; with Lovo (Homo sapiens) it was 46 ± 49 nM. The concentration for half-maximal inhibition (IC50) stood at 3070 nM with H23 (Homo sapiens, NCI-H23, 96 h); 93 nM in the test on H322 (NCI-H322, 96 h); 185 ± 60 nM in the test on LS513 (Homo sapiens, LS-513); 585 ± 70 nM with HCT116 (Homo sapiens, HCT-116).

For the origin of these results see patent US10633386B2, “BET protein degraders” (THE REGENTS OF THE UNIVERSITY OF MICHIGAN, priority 2016, dated 2020).
